The source of these data is patent US6723531B2, “Method for modulating expression of exogenous genes in mammalian systems, and products related thereto” (The Salk Institute for Biological Studies, priority 1996, dated 2004).

“Also recorded” adds a separate entry of the source.

In series [1] the target is T1, ecdysone receptor (EcR)/USP (Drosophila melanogaster, UniProt P34021).
T1 construct: expressed in transfected cells; host or cells: CV-1 cells
T1 sequence (P34021 1-878): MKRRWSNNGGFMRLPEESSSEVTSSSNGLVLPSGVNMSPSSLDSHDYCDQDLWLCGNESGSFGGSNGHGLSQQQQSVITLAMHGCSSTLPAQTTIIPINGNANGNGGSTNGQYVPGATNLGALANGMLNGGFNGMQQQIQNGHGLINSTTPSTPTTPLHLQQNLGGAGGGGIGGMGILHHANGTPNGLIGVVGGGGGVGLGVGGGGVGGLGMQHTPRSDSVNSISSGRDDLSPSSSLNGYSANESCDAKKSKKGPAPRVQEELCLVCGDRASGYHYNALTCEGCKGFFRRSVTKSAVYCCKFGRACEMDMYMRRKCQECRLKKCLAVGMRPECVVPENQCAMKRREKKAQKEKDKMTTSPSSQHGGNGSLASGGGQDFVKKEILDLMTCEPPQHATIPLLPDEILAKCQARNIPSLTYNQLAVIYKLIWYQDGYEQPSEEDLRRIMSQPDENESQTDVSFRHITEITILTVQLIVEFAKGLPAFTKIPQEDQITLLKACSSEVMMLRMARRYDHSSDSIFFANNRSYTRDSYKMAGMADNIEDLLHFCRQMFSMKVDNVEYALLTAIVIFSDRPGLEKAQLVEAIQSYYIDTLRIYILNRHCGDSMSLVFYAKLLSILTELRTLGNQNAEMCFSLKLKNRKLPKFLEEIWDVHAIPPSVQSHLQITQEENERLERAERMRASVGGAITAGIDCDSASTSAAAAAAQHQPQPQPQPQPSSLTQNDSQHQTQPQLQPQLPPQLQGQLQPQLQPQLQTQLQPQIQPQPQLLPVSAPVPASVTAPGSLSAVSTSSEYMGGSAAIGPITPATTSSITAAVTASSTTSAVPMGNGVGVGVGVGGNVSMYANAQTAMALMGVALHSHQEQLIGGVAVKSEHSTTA
T1 sequence (P20153 1-508 partner): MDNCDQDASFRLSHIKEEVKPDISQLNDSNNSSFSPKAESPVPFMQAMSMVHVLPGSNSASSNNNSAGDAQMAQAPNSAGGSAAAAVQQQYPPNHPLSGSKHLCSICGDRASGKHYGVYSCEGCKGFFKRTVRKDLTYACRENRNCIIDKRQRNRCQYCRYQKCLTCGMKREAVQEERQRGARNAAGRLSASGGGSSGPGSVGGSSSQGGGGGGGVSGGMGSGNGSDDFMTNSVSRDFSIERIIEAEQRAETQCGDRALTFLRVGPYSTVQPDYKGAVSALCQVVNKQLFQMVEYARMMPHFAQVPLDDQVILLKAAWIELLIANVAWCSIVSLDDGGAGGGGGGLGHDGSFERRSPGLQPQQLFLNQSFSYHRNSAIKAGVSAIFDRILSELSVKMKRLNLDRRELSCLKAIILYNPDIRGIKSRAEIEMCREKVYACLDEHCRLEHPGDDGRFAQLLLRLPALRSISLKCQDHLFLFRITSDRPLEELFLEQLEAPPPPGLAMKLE
As to the kind of experiment: Transient transfection reporter assay in CV-1 cells, ecdysone receptor with USP. The class given is cell-based. Conditions: 1 μM muristerone A, unmodified ecdysone receptor. As to the method:
CV-1 cells were maintained in DMEM supplemented with 10%. Fetal Bovine Serum. Transient transfections were performed using DOTAP transfection reagent (Boehringer-Mannheim). Transfections using β-galactosidase as the reporter were assayed either by Galactolight luminescent assay (Tropix, Bedford, Mass.) or by standard liquid ONPG assay (Sigma, St. Louis, Mo.). The values were normalized by co-transfection of CMX-luciferase. Transfections using luciferase as the reporter were assayed by standard techniques using luciferin and ATP. These values were normalized by co-transfection of CMX-β-galactosidase. Hormone treated cells were treated with ethanol, 50 μM Juvenile Hormone III (Sigma), 1 μM muristerone A (Zambon, Bresso, IT), or 1 μM dexamethasone (Sigma) unless otherwise noted.
To maximize the sensitivity of the invention ecdysone inducible system, modifications of the ecdysone receptor were made. The N-terminal transactivation domain of the ecdysone receptor was replaced by the corresponding domain of the glucocorticoid receptor (GR), resulting in the modified ecdysone receptor GEcR (See FIG. 1D). CV-1 cells were transfected with the plasmid CMX-GEcR encoding the modified ecdysone receptor as discussed above. […]

Series [2] has as its system ecdysone inducible promoter (CD3-VpEcR; CD3-RXR; ESHβ). As to the kind of experiment: Northern blot of receptor/reporter double transgenic mice. The class given is in vivo. Conditions: 10 mg intraperitoneal, RNA 48 hours after treatment, thymus. As to the method:
To produce transgenic mice, the following DNA constructs were prepared and subsequently injected into fertilized eggs: CD3-VpEcR, CD3-RXR, ESHβ (Lee et al., J. Exp. Med. 175:1013-1025 (1992)). Two separate lines of transgenic mice were generated harboring either an ecdysone inducible reporter, ESHβ, or a T-cell specific expression construct of VpEcR and RXR, respectively. The former are referred to as reporter mice, the latter are referred to as receptor mice, and double transgenic mice are referred to as receptor/reporter mice. Constructs CD3-VpEcR and CD3-RXR were mixed and coinjected, while ESHB was injected alone. Primary genotyping was performed by Southern blot analysis and the transmission of transgenic mice was monitored by dot blot analysis. Receptor mice were analyzed for VpEcR and RXR expression by Northern blot analysis of RNA collected from these mice. For Northern blot analysis, 15 μg of total RNA obtained from the thymus, and various tissues as a control, was run on a denaturing gel and blotted onto a nitrocellulose membrane. The blot was probed with a radiolabeled β-gal-specific probe and exposed on film for 2 days. These receptor mice were healthy, fertile, and appeared normal by visual inspection. In addition, the transgene was transferred to the offspring as expected by Mendelian genetics. […]

The subject of another series is adult mice. As to the kind of experiment: Toxicity study in adult mice. The class given is in vivo. The note with it: intraperitoneal, 20 mg in sesame oil, observed approximately two months. As to the method:
In order to use muristerone as a potential hormone in mice, its toxicity and bioavailability was examined. For toxicity studies, adult mice were injected intraperitonealy with 20 mg of muristerone A suspended in sesame oil. The mice were then observed for approximately two months. […] In addition to the inert qualities of muristerone (an ecdysone), overexpression of VpEcR and RXR appears not to be toxic.

Series [3] has as its system N13 cells (293 cells with VpEcR, RXR and ecdysone inducible reporter). The series is described as follows: X-gal staining of stable cell line N13. The note with it: 24 hours of treatment with 1 μM muristerone; 3 hours of staining. It counts as cell-based. As to the method:
Stable cell lines were generated containing the modified ecdysone receptor VpEcR, a heterodimeric partner (RXR), and an ecdysone inducible reporter (FIG. 2). 293 cells were transfected with the following linearized plasmids, pRC-ESHβ, EcREx5-ΔMTV-Luc, CMX-VpEcR, and CMX-hRXRa. The following day, the cells were split 1:10 and were allowed to recover one day prior to selection with 1 mg/ml G418 (GIBCO). After 14 days of selection, 14 individual clones were isolated and grown separately in the presence of 0.5 mg/ml G418.
One of these cell lines, N13, was grown in the presence or absence of 1 μM muristerone for 20 hours. Cell lysates were then assayed for β-galactosidase and luciferase activities as described in Example 1. X-gal staining was performed on the stable cell lines. Cells were fixed briefly with 10% formaldehyde in PBS and then stained with X-Gal (Molecular Probes, Eugene, Oreg.) for 2 to 6 hours. After 24 hours of treatment with 1 μM muristerone, 100% of the cells turned dark blue after 3 hours of staining. Thus, mammalian cells containing the modified ecdysone receptor VpEcR, a heterodimeric partner (RXR), and a reporter gene construct regulated by a modified ecdysone response element, function to efficiently express an exogenous gene in response to a ligand, e.g., ecdysone.

Series [4] shares this test system. The series is described as follows: Kinetics of induction in N13 cells (luciferase activity). The class given is cell-based. Conditions: 1 μM muristerone. As to the method:
(§1) N13 cells were grown with varying concentrations of muristerone for 36 hours and then assayed for β-galactosidase activity (open squares) by standard ONPG assay or for luciferase activity (closed circles). […] N13 cells were grown in separate wells in the presence of 1 μM muristerone, harvested at varying times, and assayed for luciferase activity as described in Example 3.
Finally, the kinetics of muristerone mediated induction was measured. N13 cells were grown in separate wells in the presence of 1 μM muristerone, harvested at varying times, and assayed for luciferase activity. Inductions of 100-fold in 3 hrs., 1000 fold in 8 hrs., and maximal effects of 20,000 fold after 20 hours of treatment were observed (FIG. 3B).

For series [5], the system named is CV-1 cells transfected with CMX-GEcR, CMX-hRXRa, and EcREx5-DMTV-Luc. The series is described as follows: Bioavailability study: serum of injected mice tested on transfected CV-1 cells. It counts as in vivo. As to the method: For muristerone bioavailability studies, adult mice were injected intraperitoneally with sesame oil with or without […] of muristerone, and were subsequently sacrificed for serum collection. After twelve hours, blood was drawn from the mice, and the serum was isolated by brief centrifugation of the whole blood. In order to conduct transfection assays to test for muristerone activity, serum from sesame oil injected mice was divided, and half was supplemented with muristerone to a final concentration of 10 μM. The three batches of mouse serum were diluted 1:10 in DMEM and placed onto CV-1 cells transfected with CMX-GEcR, CMX-hRXRa, and EcREx5-DMTV-Luc.

Series [6] concerns N13 cells (293 cells with VpEcR, RXR and ecdysone inducible reporter). The series is described as follows: Dose-response assay in N13 cells (β-galactosidase and luciferase reporters). The note with it: 36 hours. It counts as cell-based. As to the method:
as §1
FIG. 5 compares the dose-dependent activation of N13 cells with muristerone (X) and ponasterone A (open circles).
A dose-response assay was conducted by growing N13 cells with varying concentrations of muristerone for 36 hours and then assaying for β-galactosidase activity (using the well-known ONPG assay), or the cells were assayed for luciferase activity. […] One-hundred fold induction was achieved by muristerone concentrations as low as 100 nM (FIG. 3A).
A dose-response assay was conducted as described in Example 3, by growing N13 cells with varying concentrations of muristerone or ponasterone A for 36 hours and then assaying for β-galactosidase activity (using the well-known ONPG assay), or the cells were assayed for luciferase activity.

The test system of the next series is pregnant mice. The series is described as follows: Teratogenic study in pregnant mice. It counts as in vivo. The note with it: 20 mg in sesame oil, mother and pups observed three months.

As to `CC(C)CC[C@@H](O)[C@](C)(O)[C@H]1CC[C@@]2(O)C3=CC(=O)[C@]4(O)C[C@@H](O)[C@@H](O)C[C@]4(C)[C@H]3[C@H](O)C[C@]12C` [muristerone A], in series [1], the “muristerone responsiveness (fold induction)” value worked out at 3 fold. Moreover, in series [2], the “induction from an ecdysone inducible promoter (Northern blot)” value is on record as “significant induction”. The toxicity entry in the series on adult mice was “neither toxic”. In series [3], the “cells turned dark blue (X-gal staining)” value is given as 100%. Moreover, the “induction of luciferase activity” value in series [4] (3 hrs) turned out to be 100 fold; in series [4] (8 hrs), 1000 fold. The “maximal induction of luciferase activity” value in series [4] (after 20 hours of treatment) is reported as 20,000 fold. In addition, in series [5] (intraperitoneal 10 μmg in sesame oil, serum after twelve hours, diluted 1:10 in DMEM), the “luciferase activity of serum from treated mice” value is reported as “comparable to that seen from untreated mouse serum supplemented with 1 μM muristerone”. The “activity when injected into mice” value in series [5] (mice, intraperitoneal) is “maintains its activity”. For the same molecule, in series [5] (mouse serum), the “inactivation or blunting of activity by serum proteins” value is “nor inactivated by serum binding proteins; also recorded: little or no blunting of activity”. The fold induction entry in series [6] (concentrations as low as 100 nM) is on record as “One-hundred”. Further, the “inducibility of β-galactosidase and luciferase reporters” value in series [6] (final concentration 10 μM) was ~3 orders of magnitude. The teratogenicity result with pregnant mice is listed as “neither toxic, teratogenic”.
